# According to PubChem BioAssay AID179 (DTP/NCI, 2004):
# Calls of active or inactive are those of the source.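 The calls were made as follows: active = compounds giving half or more protection of infected cells from virus-caused growth loss, again on retest; inactive = the rest.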 Where a SMILES comes first, the peptide text is derived from it. [ ]: non-standard residue; d: D form. The star is where a group is joined. ξ: configuration not given here. NMeF = CN[C@@H](Cc1ccccc1)C(=O)O; NMeN = CN[C@@H](CC(N)=O)C(=O)O; NMeV = CN[C@H](C(=O)O)C(C)C; ξNMeV = CNC(C(=O)O)C(C)C; Boc = CC(C)(C)OC(=O)*; ξNMeA = CNC(C)C(=O)O; ξV = CC(C)C(N)C(=O)O
# Tested on: CEM cells HIV-1 protection, formazan growth assay
# Assay: NCI AIDS Antiviral Assay
# Details: for IC50: measured here: growth of uninfected CEM cells
# Summary of the method: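 Steps: treat uninfected and HIV-1-infected human CEM cells at five drug levels; quantify growth by soluble formazan; retest any compound reaching 50% protection; classify actives from the retest.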
SMILES,EC50,IC50,outcome
COC(=O)C(C)N(C)C(=O)[C@H](CC(N)=O)N(C)C(=O)[C@@H]1CCCN1C(=O)[C@H](C(C)C)N(C)C(=O)C(C(C)C)N(C)C(=O)[C@H](Cc1ccccc1)N(C)C(=O)C(NC(=O)OC(C)(C)C)C(C)C (stereo not given in full) (Boc-[ξV][NMeF][ξNMeV][NMeV]P[NMeN][ξNMeA]-OMe),> 100 µM,17.8 µM,–
O=C1C=C(N2CCCCC2)c2cnccc2C1=O,–,–,inactive
CCOC(=O)NP(=O)(N1CC1)N1CC1,> 200 µM,> 200 µM,–
CCOC(=O)/C(=C\c1ccc(C)o1)P(=O)(OCC)OCC,> 794 µM,> 100 µM,–
O=C(CC1(O)C(=O)Nc2ccc(Br)cc21)c1cccc([N+](=O)[O-])c1 (stereo not given),> 174 µM,93.3 µM,–
CN(C)CCNC(=O)Cn1ccc(=O)c2cc([N+](=O)[O-])ccc21,> 200 µM,> 200 µM,–
COc1ccc(-c2nc(-c3cnccn3)n(COCCO)n2)cc1,> 200 µM,> 200 µM,–
CC(=O)NNc1nc(C)c(C(/C=C/c2ccc(Cl)cc2)=N/NC(=S)NN)s1,> 44.7 µM,> 44.7 µM,–
COC(=O)CCC(=O)CC(=O)C(=O)Nc1c(Cl)cc([N+](=O)[O-])cc1Cl,> 18.2 µM,> 18.2 µM,–
C=CCNC(=S)/N=C/c1c(O)[nH]c(=O)[nH]c1=O,–,–,inactive
CC(=O)OC(OC(C)=O)c1c2ccccc2cc2ccccc12,> 200 µM,9.77 µM,–
COCCN(C(C)=O)C1CCC2(SCCS2)c2[nH]c3ccccc3c21 (stereo not given),> 200 µM,> 200 µM,–
Cc1c(S(=O)(=O)c2ccccc2)c(N)n(CCN(C)C)c1C,> 200 µM,44.7 µM,–
COC1OC(COC(=O)c2ccccc2)CC1F (stereo not given),> 195 µM,21.4 µM,–
NC(=O)N/N=C/c1ccc(Cl)cc1,> 132 µM,> 132 µM,–
O=C1NC(=S)S/C1=C\c1cccs1,> 60.3 µM,> 60.3 µM,–
N#CC1(C#N)C(=O)c2ccncc2C1=O,> 200 µM,> 200 µM,–
CC(=O)Oc1cccc2c1C(=O)CCCC2,> 200 µM,> 200 µM,–
OCCN1CC2CCCC1O2 (stereo not given),> 1580 µM,> 1580 µM,–

SMILES,EC50,IC50,outcome
CCOC(=O)N1CCN(c2c(N)nc(C)[nH]c2=O)CC1,> 200 µM,> 200 µM,–
C[N+]12CC[N+](C)(CC1)CC2,> 832 µM,> 832 µM,–
CCOC(=O)C1(C(=O)OCC)COC(=O)C1CN1Cc2cc3ccccc3nc2C1 (stereo not given),> 427 µM,47.9 µM,–
CC1=NN(c2ccccc2)C(=O)/C1=C\N1CC(=O)NC1=S,> 200 µM,87.1 µM,–
N#Cc1ncn(-c2ccccc2)c1N,> 200 µM,> 200 µM,–
N#Cc1ccc(Sc2nc3ccccc3[nH]2)cc1,–,–,inactive
Oc1c(CN2CCOCC2)cc(N=Nc2ccccc2)c(O)c1CN1CCOCC1,> 100 µM,> 100 µM,–
Cc1cc(OC(=O)c2c(C)cc(OC(=O)c3c(C)cc(O)cc3O)cc2O)cc(O)c1C(=O)O,> 77.6 µM,> 77.6 µM,–
CC(=O)O[C@@H]1C(C2CCCCC2)C=[N+]([O-])O[C@@H]1OC1CCCC1(c1ccccc1)c1ccccc1 (stereo not given in full),> 200 µM,1.7 µM,–
CC(O)CNC1=CC(=O)C(=O)c2ccccc21 (stereo not given),> 200 µM,28.8 µM,–
O=C1CC2CCC(C1)N2CC1COc2ccccc2O1 (stereo not given),> 200 µM,> 200 µM,–
CC(C)=C=CC(C)(C)NS(=O)(=O)NC(C)(C)C=C=C(C)C,> 200 µM,105 µM,–
NCC1=NCCN1,> 200 µM,> 200 µM,–
COc1ccc2c(c1)CC[C@@H]1C2CC[C@]2(C)OC(=O)CCC12 (stereo not given in full),> 87.1 µM,12 µM,–
CC(C)CCCC(C)C1CCC2C3CC([N+](=O)[O-])=C4CC(O)CCC4(C)C3CCC12C (stereo not given),> 575 µM,251 µM,–
CC1=C(C(=O)NC(C)(C)C)CC(C(=O)NC(C)(C)C)C(C)N1 (stereo not given),> 200 µM,> 200 µM,–
O=c1[nH]c(=O)c2c([nH]1)[nH]c1ccc(Br)cc12,> 200 µM,34.7 µM,–
CCOC(=O)C(=CNC(Cc1c[nH]c2ccccc12)C(=O)OC)C(=O)OCC (stereo not given),–,–,inactive
